Assay results taken from patent US20250236642A1, “PHARMACEUTICAL COMPOSITION FOR TREATMENT OR PREVENTION OF ADULT T-CELL LEUKEMIA” (NEC Corporation, priority 2022, published 2025).
Read-outs that look alike come from different tables or passages of the source. No end group written: not given here.

Columns and labels:
[1] = target: T1, HLA-A*02:01 molecule (Homo sapiens, UniProt P04439, D140Y/D185E/D98H/E176V/E277Q/G131W/G231S/I119V/I121R/I166T/I218V/L300P/L318F/N151K/N90K/P208A/P217A/Q86G/Q94H/R138H/R169H/T345S); assay: Binding of peptide to HLA-A*02:01 molecule using cell line T2
T1 construct: using a cell line T2 (purchased from ATCC) expressing an HLA-A*02:01 molecule; host or cells: T2 cell line
Method: Measurement of binding ability of a peptide to an HLA-A*02:01 molecule, which is a product of an HLA-A*02:01 gene, was performed using a cell line T2 (purchased from ATCC) expressing an HLA-A*02:01 molecule.
T2 cells and purified β2m were added to a serial dilution series of a peptide whose binding ability was to be measured, and then the mixture was incubated at 37° C. for four hours. HLA-A*02:01 molecules whose expression level increased in a peptide concentration-dependent manner by this time point were stained using an association-type specific fluorescently labeled monoclonal antibody BB7.2.
Thereafter, the amount of fluorescence per cell was measured with a flow cytometer, and a dissociation constant Kd value was calculated by the method disclosed in the article (Udaka et al., Immunogenetics, 51, 816-828, 2000) by the present inventor.

[2] = target: HLA-A*24:02 molecule (Homo sapiens, UniProt P04439, D101N/D140Y/D185E/E176V/E190D/F33S/G103R/G107R/I119L/I121M/I306V/K335N/L105A/L180Q/L300P/N151K/N90K/Q86E/Q94H/R106L/R138H/R89G/T104I/T345S/V100E/W191G/Y123F); assay: Binding of peptide to HLA-A*24:02 molecule using C1R-A24 cells
Method: Measurement of binding ability of a peptide to an HLA-A*24:02 molecule, which is a product of an HLA-A*24:02 gene, was performed using C1R-A24 cells expressing an HLA-A*24:02 molecule (Cells created by Professor Masafumi Takiguchi, Kumamoto University, was provided by Assistant Professor Masaki Yasukawa, Ehime University, with permission).
First, the C1R-A24 cells were exposed to acidic conditions at pH 3.3 for 30 seconds to dissociate and remove an endogenous peptide originally binding to an HLA-A*24:02 molecule and light chain β2m commonly associated with an HLA class I molecule. After neutralization, purified β2m was added to the C1R-A24 cells, and the mixture was added to a peptide dilution series and incubated on ice for four hours.
Thereafter, the number of MHC-peps for each C1R-A24 cell (proportional to a fluorescence intensity of the fluorescent antibody) was quantitatively measured using a fluorescence cell analyzer FACScan (Becton-Dickinson).

[3] = target: T2, HLA-A*02:06 molecule (Homo sapiens, UniProt P04439, D140Y/D185E/D98H/E176V/E277Q/F33Y/G131W/G231S/I119V/I121R/I166T/I218V/L300P/L318F/N151K/N90K/P208A/P217A/Q86G/Q94H/R138H/R169H/T345S); assay: Binding of peptide to HLA-A*02:06 molecule using RA2.6 cells
T2 construct: expressed in transfected cells; host or cells: RA2.6 cells (mouse TAP-deficient RMAS with HLA-A*02:06 cDNA)
Method: Measurement of binding ability of a peptide to an HLA-A*02:06 molecule, which is a product of an HLA-A*02:06 gene, was performed using RA2.6 cells (a cell line newly created at Kochi University) obtained by introducing cDNA of the HLA-A*02:06 gene into RMAS, which is a mouse transporter associated with antigen processing (TAP)-deficient cell line.
A fluorescently labeled monoclonal antibody BB7.2 that specifically recognizes a peptide binding type HLA-A*02:06 molecule was added thereto, and the mixture was incubated on ice for 20 minutes to stain the cells.

[4] = Measured value of allele A*24:02, Table 2, dissociation constant Kd value (−log Kd value), >−3.0 = no significant binding ability
[5] = Table 2, dissociation constant Kd value (−log Kd value), >−3.0 = no significant binding ability, read-out: Measured value of allele A*02:01 (converted)
[6] = Table 2, dissociation constant Kd value (−log Kd value), >−3.0 = no significant binding ability, read-out: Measured value of allele A*24:02 (converted)
[7] = Table 4, Kd value (−log Kd value), smaller than −3 = binding property, read-out: Measured value of allele A*24:02 (converted)
[8] = Table 2, dissociation constant Kd value (−log Kd value), >−3.0 = no significant binding ability, read-out: Measured value of allele A*02:06 (converted)

## IALETPVWI [compound 20]
[1]
  Kd: 7.77 µM
[2]; [4]
  Kd: 3.29 µM
[3]
  Kd: 3.03 µM

## IFADVSSST [compound 78]
[1]; [5]
  Kd: > 1000 µM
[2]; [6]
  Kd: > 1000 µM
[2]; [7]
  Kd: > 1000 µM
[3]; [8]
  Kd: > 1000 µM

## ILSDHQQSQ [compound 70]
[1]; [5]
  Kd: > 1000 µM
[2]; [6]
  Kd: > 1000 µM
[2]; [7]
  Kd: > 1000 µM
[3]; [8]
  Kd: > 1000 µM

## IQYSSFHNL [compound 21]
[1]
  Kd: 5.17 µM
[2]; [4]
  Kd: 0.294 µM
[3]
  Kd: 2.51 µM

## ISAYRTCWI [compound 34]
[1]; [5]
  Kd: > 1000 µM
[2]; [6]
  Kd: 10 µM
[3]; [8]
  Kd: 729 µM

## KFLEAFHEV [compound 8]
[1]; [5]
  Kd: 1.17 µM
[2]; [6]
  Kd: 0.133 µM
[3]; [8]
  Kd: 1.56 µM

## LAEEHGATL [compound 61]
[1]; [5]
  Kd: > 1000 µM
[2]; [6]
  Kd: > 1000 µM
[2]; [7]
  Kd: > 1000 µM
[3]; [8]
  Kd: 32 µM

## LAITRKSFI [compound 46]
[1]; [5]
  Kd: > 1000 µM
[2]; [6]
  Kd: 7.61 µM
[3]; [8]
  Kd: 911 µM

## LHEEHGATL [compound 79]
[1]; [5]
  Kd: > 1000 µM
[2]; [6]
  Kd: > 1000 µM
[2]; [7]
  Kd: > 1000 µM
[3]; [8]
  Kd: > 1000 µM

## LHITRKSFI [compound 63]
[1]; [5]
  Kd: > 1000 µM
[2]; [6]
  Kd: 17.5 µM
[3]; [8]
  Kd: > 1000 µM

## LIEEHGATL [compound 40]
[1]; [5]
  Kd: 31.9 µM
[2]; [6]
  Kd: > 1000 µM
[2]; [7]
  Kd: > 1000 µM
[3]; [8]
  Kd: 15.3 µM

## LIITRKSFI [compound 29]
[1]; [5]
  Kd: 78.1 µM
[2]; [6]
  Kd: 2.5 µM
[3]; [8]
  Kd: 230 µM

## LLITRKSFI [compound 16]
[1]; [5]
  Kd: 7.39 µM
[2]; [6]
  Kd: 0.23 µM
[3]; [8]
  Kd: 23.7 µM

## LLLFSAAAL [compound 1]
[1]; [5]
  Kd: 0.881 µM
[2]; [6]
  Kd: 11.1 µM
[3]; [8]
  Kd: 10.9 µM

## LLNPNRQTI [compound 23]
[1]; [5]
  Kd: 5.74 µM
[2]; [6]
  Kd: 0.602 µM
[3]; [8]
  Kd: 296 µM

## LMEEHGATL [compound 13]
[1]; [5]
  Kd: 12.1 µM
[2]; [6]
  Kd: 5.98 µM
[3]; [8]
  Kd: 2.1 µM

## LMITRKSFI [compound 17]
[1]; [5]
  Kd: 6.26 µM
[2]; [6]
  Kd: 0.972 µM
[3]; [8]
  Kd: 29.3 µM

## LPFSPSQFL [compound 60]
[1]; [5]
  Kd: > 1000 µM
[2]; [6]
  Kd: 448 µM
[3]; [8]
  Kd: > 1000 µM

## LPPARHSTI [compound 76]
[1]; [5]
  Kd: > 1000 µM
[2]; [6]
  Kd: > 1000 µM
[2]; [7]
  Kd: > 1000 µM
[3]; [8]
  Kd: > 1000 µM

## LTEEHGATL [compound 42]
[1]; [5]
  Kd: 82.1 µM
[2]; [6]
  Kd: > 1000 µM
[2]; [7]
  Kd: > 1000 µM
[3]; [8]
  Kd: 11.9 µM

## LTITRKSFI [compound 45]
[1]; [5]
  Kd: > 1000 µM
[2]; [6]
  Kd: 15 µM
[3]; [8]
  Kd: 162 µM

## LVEEHGATL [compound 43]
[1]; [5]
  Kd: 66.1 µM
[2]; [6]
  Kd: > 1000 µM
[2]; [7]
  Kd: > 1000 µM
[3]; [8]
  Kd: 13.7 µM

## LVITRKSFI [compound 30]
[1]; [5]
  Kd: 97.6 µM
[2]; [6]
  Kd: 3.47 µM
[3]; [8]
  Kd: 243 µM

## MLPQTPSHL [compound 24]
[1]; [5]
  Kd: 2.64 µM
[2]; [6]
  Kd: 0.0716 µM
[3]; [8]
  Kd: 109 µM

## SLLITRKSF [compound 62]
[1]; [5]
  Kd: > 1000 µM
[2]; [6]
  Kd: 1.44 µM
[3]; [8]
  Kd: > 1000 µM

## SLPFSPSQF [compound 56]
[1]; [5]
  Kd: > 1000 µM
[2]; [6]
  Kd: 0.1 µM
[3]; [8]
  Kd: > 1000 µM

## SLPNEKQTS [compound 69]
[1]; [5]
  Kd: > 1000 µM
[2]; [6]
  Kd: > 1000 µM
[2]; [7]
  Kd: > 1000 µM
[3]; [8]
  Kd: > 1000 µM

## SLVLTWAAL [compound 14]
[1]; [5]
  Kd: 2.36 µM
[2]; [6]
  Kd: 4.89 µM
[3]; [8]
  Kd: 0.572 µM

## SPDEFSNDF [compound 73]
[1]; [5]
  Kd: > 1000 µM
[2]; [6]
  Kd: > 1000 µM
[2]; [7]
  Kd: > 1000 µM
[3]; [8]
  Kd: > 1000 µM

## SSFEFFEEA [compound 37]
[1]; [5]
  Kd: 0.32 µM
[2]; [6]
  Kd: > 1000 µM
[2]; [7]
  Kd: > 1000 µM
[3]; [8]
  Kd: 0.0377 µM

## SSLDPPKVL [compound 55]
[1]; [5]
  Kd: > 1000 µM
[2]; [6]
  Kd: 4.47 µM
[3]; [8]
  Kd: > 1000 µM
